{"source": "paper PMC5391289", "about": "(Nature chemical biology, 2017)", "key": {"E. coli MC4100": {"test_system": "E. coli MC4100", "assay": "Broth microdilution antimicrobial assay", "assay_type": "cell-based, Escherichia coli", "conditions": "Mueller-Hinton broth, 100 µM to 49 nM, 37 °C, 18 h, at least 2 replicates"}, "[1]": {"test_system": "Enterococcus faecium U503 (VRE)", "assay": "Broth microdilution antimicrobial assay", "assay_type": "cell-based", "conditions": "Mueller-Hinton broth, 100 µM to 49 nM, 37 °C, 18 h, at least 2 replicates"}, "[2]": {"test_system": "Bacillus anthracis Sterne", "assay_type": "cell-based"}, "Bacillus subtilis 168": {"test_system": "Bacillus subtilis 168", "assay": "Broth microdilution antimicrobial assay", "assay_type": "cell-based", "conditions": "Mueller-Hinton broth, 100 µM to 49 nM, 37 °C, 18 h, at least 2 replicates"}, "[3]": {"test_system": "Mycobacterium smegmatis NRRL B-14616", "assay": "Broth microdilution antimicrobial assay", "assay_type": "cell-based", "conditions": "Mueller-Hinton broth, 100 µM to 49 nM, 37 °C, 24 h, at least 2 replicates"}, "panel of bacteria": {"test_system": "panel of bacteria", "assay": "Broth microdilution antimicrobial assay", "assay_type": "cell-based", "conditions": "all organisms tested, 100 µM to 49 nM compound, 37 °C, no visible growth after 18 h (24 h M. smegmatis), at least 2 replicates"}}, "note": "Ends that are not written are not given here.", "data": [{"sequence": "GFIGWGNDIFGHYSGGF (also: lariat or depsi (positions not given here)) [anantin B1]", "values": [{"measurement": "growth-suppressive activity", "setting": "E. coli MC4100", "result": "weak activity"}]}, {"sequence": "GRPNWGFENDWSCVRVC (also: bicyclic or more (positions not given here)) [LP2006]", "values": [{"measurement": "growth-suppressive activity", "setting": "[1]", "result": "active"}, {"measurement": "growth-suppressive activity", "setting": "[2]", "result": "active"}, {"measurement": "growth-suppressive activity", "setting": "Bacillus subtilis 168", "result": "active"}, {"measurement": "growth-suppressive activity", "setting": "[3]", "result": "active"}]}, {"sequence": "LLGLAGNDRLVLSKN (also: lariat or depsi (positions not given here)) [Citrulassin A]", "values": [{"measurement": "growth-suppressive activity", "setting": "panel of bacteria", "result": "lacked growth suppressive activity towards all organisms tested"}]}, {"sequence": "SYHWGDYHDWHHGWYGWWDD (also: lariat or depsi (positions not given here)) [moomysin]", "values": [{"measurement": "growth-suppressive activity", "setting": "panel of bacteria", "result": "lacked growth suppressive activity towards all organisms tested"}]}, {"sequence": "GFIGWGNDIFGHYSGG (also: lariat or depsi (positions not given here)) [anantin B2]", "values": [{"measurement": "growth-suppressive activity", "setting": "Bacillus subtilis 168", "result": "moderately active"}, {"measurement": "growth-suppressive activity", "setting": "E. coli MC4100", "result": "weak activity"}]}, {"sequence": "LAGQGSPDLLGGHSLL (also: lariat or depsi (positions not given here)) [lagmysin]", "values": [{"measurement": "growth-suppressive activity", "setting": "panel of bacteria", "result": "lacked growth suppressive activity towards all organisms tested"}]}]}
